Source: patent US4024277A, “Phosphoro-aminosulfenyl derivatives of benzofuran carbamates” (priority 1975, dated 1977)

Assays:
large milkweed bug = assay: Initial insecticidal activity, milkweed bug; format: in vivo, Oncopeltus fasciatus (Dallas); conditions: Oncopeltus fasciatus, 48-hour exposure, read-out: % Kill, Milkweed Bug
Description: (§1) a. Initial Insecticidal Activity
(§2) In this test, a candidate insecticide, in solution, is applied to either infested or uninfested plants or containers by spraying or dipping. (The preferred test procedure varies with insect species. The dipping method is better than the spraying method, and vice versa, for certain species of insects. Also some species are better adapted to the test by infesting after the chemical treatment rather than before.) Once the tests have been established, a 48-hour exposure period is observed before reading the tests. Insect species included in these tests are Mexican bean beetle (Epilachna varivestis Mulsant), pea aphid [Acyrthosiphon pisum (Harris)], southern armyworm [Spodoptera eridania (Cramer)], twospotted spider mite (Tetranychus urticae Koch), large milkweed bug [Oncopeltus fasciatus (Dallas)], plum curculio [Conotrachelus nenuphar (Herbst)], confused flour beetle (Tribolium confusum Jacquelin duVal) and granary weevil [Sitophilus granarius (Linnaeus)]. Test results are set forth in Table I. A control sample, comprising the solution without the candidate insecticide, is also included.

twospotted spider mite [1] = assay: Initial insecticidal activity, twospotted spider mite; format: in vivo, Tetranychus urticae Koch; conditions: Tetranychus urticae, 48-hour exposure, read-out: % Kill, Twospotted Spider Mite
Description: as §1, §2

pea aphid = assay: Systemic insecticidal activity (soil/water), pea aphid; format: in vivo, Acyrthosiphon pisum (Harris); conditions: Acyrthosiphon pisum, 48-hour exposure, read-out: % Kill, Pea Aphid
Procedure: (§3) c. Systemic Insecticidal Acitivity (Soil/Water)
(§4) In this test, a candidate insecticide, in solution, is added to the soil of either uninfested pinto bean seedlings (Phaseolus vulgaris) or uninfested broad bean seedlings (Vicia faba var. Windsor). The plant species used depend on the insect species in the test. Usually, a 72-hour translocation period before infestation is required, followed by a 48-hour exposure period, before evaluation of the tests. The insect species used in the systemic tests are Mexican bean beetle, southern armyworm, pea aphid, and twospotted spider mite.

southern armyworm = assay: Systemic insecticidal activity (soil/water), southern armyworm; format: in vivo, Spodoptera eridania (Cramer); conditions: Spodoptera eridania, 48-hour exposure, read-out: % Kill, Southern Armyworm
Procedure: as §3, §4

twospotted spider mite [2] = assay: Ovicidal activity against the twospotted spider mite; format: in vivo, Tetranychus urticae Koch; conditions: Tetranychus urticae, eggs, 7 to 10 days, read-out: % Kill (ovicidal)
Procedure: d. Ovicidal Activity Against the Twospotted Spider Mite
In this test, Pinto bean seedlings are infested with female twospotted spider mites; about 3-4 hours are allowed for egg deposition. Plants are then dipped in TEPP (tetraethylpyrophosphate-commercial emulsifiable concentrate (EC)) solution containing 936 ppm of active ingredient. TEPP kills motile forms on the leaf and promptly degrades without effecting the egg stage. Two to three hours after TEPP treatment the plants are again dipped -- this time into a candidate insecticide solution. The test plants are maintained for 7 to 10 days. Termination of exposure is determined by the time required to attain complete hatch in the untreated check.

German cockroaches = assay: Level I immersion test, German cockroaches; format: in vivo, Blattella germanica (Linnaeus); conditions: GC (male), 5 mg/milliliter; for mortality at 5000 µg/mL: Blattella germanica, 18-24 hours, read-out: % Kill; for % Knockdown: 30 minutes after immersion
Procedure: e. Insecticidal Activity Against House Flies and German Cockroaches
Compounds of this invention were tested in a Level I test at 5 mg. of active compounds/milliliter of a solution of 40% acetone -- 60% water.
In this test a group of ten house flies (Musca domestica Linnaeus) were completely immersed in 25 ml. of the insecticidal test solution. After 10 seconds of immersion, the test solution is removed. The house flies are then transferred to holding cages lines with paper toweling. In the case of the house flies, the knockdown counts were recorded 10 minutes after termination of the immersion. The percent kill was recorded after 18-24 hours.
The same Level I test technique was employed using male German cockroaches [Blattella germanica (Linnaeus)]. In this case, the knockdown counts were recorded 30 minutes after the termination of the immersion.

granary weevil [3] = assay: Initial insecticidal activity, granary weevil; format: in vivo, Sitophilus granarius (Linnaeus); conditions: Sitophilus granarius, 48-hour exposure, read-out: % Kill, Granary Weevil
Description: as §1, §2

granary weevil [4] = assay: Seven-day residual insecticidal activity, granary weevil; format: in vivo, Sitophilus granarius (Linnaeus); conditions: Sitophilus granarius, 48-hour exposure, read-out: % Kill, Granary Weevil
Description: b. Seven-Day Residual Insecticidal Activity
In this test, a candidate insecticide, in solution, is applied to uninfested plants or containers by dipping or spraying. A seven-day holding period is necessary before infestation. A 48-hour exposure period is observed before evaluation of the tests. The insect species used in this type of test are the same as those listed under initial activity.

[5] = Mammalian toxicity, 14-day LD50 in rats; conditions: rat, in vivo, Wistar derived albino rats, method of Miller and Tainter
Description: The compounds of this invention are characterized by advantageous mammalian toxicity values when compared with values for related compounds. This is shown by comparative values obtained with Wistar derived albino rats in 14-day tests. The animals were fed, housed and watered in accordance with standard laboratory procedures. The 14-day LD50 determination was estimated in accord with the method of Miller and Tainter (Experimental Biology and Medicine, 57, pp. 261-264, 1944).

CCCN(SN(C)C(=O)Oc1cccc2c1OC(C)(C)C2)P(=O)(Oc1ccccc1)Oc1ccccc1 [7(c)] showed a mortality at 39 ppm (large milkweed bug) of 5%, a mortality at 156 ppm (large milkweed bug) of 70% and a mortality at 1250 ppm (large milkweed bug) of 95%. The mortality at 39 ppm (twospotted spider mite [1]) was 1%, the mortality at 156 ppm (twospotted spider mite [1]) was 6% and the mortality at 1250 ppm (twospotted spider mite [1]) was 5%. It also gave a mortality at 39 ppm (pea aphid) of 0%, a mortality at 156 ppm (pea aphid) of 0% and a mortality at 39 ppm (southern armyworm) of 0%. The mortality at 156 ppm (southern armyworm) was 0%, the mortality at 156 ppm (twospotted spider mite [2]) was 0% and the mortality at 1250 ppm (twospotted spider mite [2]) was 0%. For the same compound, the mortality at 5000 µg/mL (German cockroaches) was 0% and the “% Knockdown” value (German cockroaches) was 0%.

In the case of CCOP(=O)(OCC)N(C)SN(C)C(=O)Oc1cccc2c1OC(C)(C)C2 [Example 1(c), 2,3-dihydro-2,2-dimethyl-7-benzofuranyl [(N-diethoxyphosphinyl) (N-methyl)-aminosulfenyl][methyl]carbamate], the mortality at 39 ppm (large milkweed bug) is reported as 100%, the mortality at 156 ppm (large milkweed bug) is reported as 100% and the mortality at 1250 ppm (large milkweed bug) is reported as 100%. For the same compound, the mortality at 39 ppm (granary weevil [3]) was 30%, the mortality at 156 ppm (granary weevil [3]) was 100% and the mortality at 1250 ppm (granary weevil [3]) was 100%. It also gave a mortality at 39 ppm (twospotted spider mite [1]) of 21%, a mortality at 156 ppm (twospotted spider mite [1]) of 37% and a mortality at 1250 ppm (twospotted spider mite [1]) of 100%. For the same compound, the mortality at 39 ppm (granary weevil [4]; 39 ppm) was 8%, the mortality at 156 ppm (granary weevil [4]; 156 ppm) was 97% and the mortality at 1250 ppm (granary weevil [4]; 1250 ppm) was 100%. The mortality at 39 ppm (pea aphid) was 100%, the mortality at 156 ppm (pea aphid) was 100% and the mortality at 39 ppm (southern armyworm) was 0%. It also gave a mortality at 156 ppm (southern armyworm) of 92%, a mortality at 39 ppm (twospotted spider mite [2]; 39 ppm) of 0% and a mortality at 156 ppm (twospotted spider mite [2]) of 0%. The mortality at 1250 ppm (twospotted spider mite [2]) was 72%, the mortality at 5000 µg/mL (German cockroaches) was 100% and the “% Knockdown” value (German cockroaches) was 100%. For the same compound, the LD50 at 336 h [5] was 146 mg/kg.

Work on CCOP(=O)(OCC)N(CC)SN(C)C(=O)Oc1cccc2c1OC(C)(C)C2 [8(c), 2,3-Dihydro-2,2-dimethyl-7-benzofuranyl [(N-diethoxyphosphinyl) (N-ethyl)aminosulfenyl][methyl]carbamate] yielded a mortality at 39 ppm (large milkweed bug) of 100%, a mortality at 156 ppm (large milkweed bug) of 100% and a mortality at 1250 ppm (large milkweed bug) of 100%. For the same compound, the mortality at 39 ppm (twospotted spider mite [1]) was 5%, the mortality at 156 ppm (twospotted spider mite [1]) was 36% and the mortality at 1250 ppm (twospotted spider mite [1]) was 100%. For the same compound, the mortality at 39 ppm (pea aphid) was 0%, the mortality at 156 ppm (pea aphid) was 100% and the mortality at 39 ppm (southern armyworm) was 20%. The mortality at 156 ppm (southern armyworm) was 57%, the mortality at 156 ppm (twospotted spider mite [2]) was 0% and the mortality at 1250 ppm (twospotted spider mite [2]) was 26%. For the same compound, the mortality at 5000 µg/mL (German cockroaches) was 100% and the “% Knockdown” value (German cockroaches) was 100%.

In the case of CCN(SN(C)C(=O)Oc1cccc2c1OC(C)(C)C2)P(=O)(OC)OC [5(c), 2,3-dihydro-2,2-dimethyl-7-benzofuranyl [(N-dimethoxyphosphinyl) (N-ethyl)aminosulfenyl][methyl]carbamate], the mortality at 39 ppm (large milkweed bug) is reported as 100%, the mortality at 156 ppm (large milkweed bug) is reported as 100% and the mortality at 1250 ppm (large milkweed bug) is reported as 100%. For the same compound, the mortality at 39 ppm (twospotted spider mite [1]) was 6%, the mortality at 156 ppm (twospotted spider mite [1]) was 47% and the mortality at 1250 ppm (twospotted spider mite [1]) was 100%. The mortality at 39 ppm (pea aphid) was 0%, the mortality at 156 ppm (pea aphid) was 100% and the mortality at 39 ppm (southern armyworm) was 60%. It also gave a mortality at 156 ppm (southern armyworm) of 100%, a mortality at 156 ppm (twospotted spider mite [2]) of 0% and a mortality at 1250 ppm (twospotted spider mite [2]) of 38%. The mortality at 5000 µg/mL (German cockroaches) was 100% and the “% Knockdown” value (German cockroaches) was 100%.

For CCCOP(=O)(OCCC)N(C)SN(C)C(=O)Oc1cccc2c1OC(C)(C)C2 [2(d), 2,3-dihydro-2,2-dimethyl-7-benzofuranyl [(N-di-n-propoxyphosphinyl) (N-methyl)aminosulfenyl][methyl]carbamate], the mortality at 39 ppm (large milkweed bug) was 100%, the mortality at 156 ppm (large milkweed bug) was 100% and the mortality at 1250 ppm (large milkweed bug) was 100%. The mortality at 39 ppm (granary weevil [3]) was 88%, the mortality at 156 ppm (granary weevil [3]) was 100% and the mortality at 1250 ppm (granary weevil [3]) was 100%. It also gave a mortality at 39 ppm (twospotted spider mite [1]) of 39%, a mortality at 156 ppm (twospotted spider mite [1]) of 91% and a mortality at 1250 ppm (twospotted spider mite [1]) of 100%. The mortality at 10 ppm (pea aphid) was 0%, the mortality at 39 ppm (pea aphid) was 11% and the mortality at 156 ppm (pea aphid) was 80%. The mortality at 10 ppm (southern armyworm) was 0%, the mortality at 39 ppm (southern armyworm) was 94% and the mortality at 156 ppm (southern armyworm) was 100%. For the same compound, the mortality at 156 ppm (twospotted spider mite [2]) was 2%, the mortality at 1250 ppm (twospotted spider mite [2]) was 80% and the mortality at 5000 µg/mL (German cockroaches) was 100%. The “% Knockdown” value (German cockroaches) was 100% and the LD50 at 336 h [5] was 152 mg/kg.

Compound CCCOP(=O)(OCCC)N(CCC)SN(C)C(=O)Oc1cccc2c1OC(C)(C)C2 [3(c)] has a mortality at 39 ppm (large milkweed bug) of 85%, a mortality at 156 ppm (large milkweed bug) of 100% and a mortality at 1250 ppm (large milkweed bug) of 100%. The mortality at 39 ppm (granary weevil [3]) was 70%, the mortality at 156 ppm (granary weevil [3]) was 90% and the mortality at 1250 ppm (granary weevil [3]) was 100%. It also gave a mortality at 39 ppm (twospotted spider mite [1]) of 32%, a mortality at 156 ppm (twospotted spider mite [1]) of 86% and a mortality at 1250 ppm (twospotted spider mite [1]) of 100%. It also gave a mortality at 10 ppm (pea aphid) of 0%, a mortality at 39 ppm (pea aphid) of 0% and a mortality at 156 ppm (pea aphid) of 79%. For the same compound, the mortality at 10 ppm (southern armyworm) was 0%, the mortality at 39 ppm (southern armyworm) was 0% and the mortality at 156 ppm (southern armyworm) was 95%. For the same compound, the mortality at 156 ppm (twospotted spider mite [2]) was 0%, the mortality at 1250 ppm (twospotted spider mite [2]) was 70% and the mortality at 5000 µg/mL (German cockroaches) was 100%. For the same compound, the “% Knockdown” value (German cockroaches) was 100%.

In the case of CC(C)OP(=O)(OC(C)C)N(C)SN(C)C(=O)Oc1cccc2c1OC(C)(C)C2 [6(c), 2,3-Dihydro-2,2-dimethyl-7-benzofuranyl [(N-diisopropoxyphosphinyl) (N-methyl)aminosulfenyl][methyl]carbamate], the mortality at 39 ppm (large milkweed bug) is reported as 95%, the mortality at 156 ppm (large milkweed bug) is reported as 100% and the mortality at 1250 ppm (large milkweed bug) is reported as 100%. For the same compound, the mortality at 39 ppm (twospotted spider mite [1]) was 6%, the mortality at 156 ppm (twospotted spider mite [1]) was 23% and the mortality at 1250 ppm (twospotted spider mite [1]) was 100%. The mortality at 39 ppm (pea aphid) was 100%, the mortality at 156 ppm (pea aphid) was 100% and the mortality at 39 ppm (southern armyworm) was 28%. It also gave a mortality at 156 ppm (southern armyworm) of 100%, a mortality at 156 ppm (twospotted spider mite [2]) of 0% and a mortality at 1250 ppm (twospotted spider mite [2]) of 91%. The mortality at 5000 µg/mL (German cockroaches) was 100% and the “% Knockdown” value (German cockroaches) was 100%.
